# How the values were obtained:
# [1] = rats; cited from earlier work
# Rat IV PK = format: in vivo; details: male, Sprague-Dawley, plasma, 1 mg/kg
# Stability in rat plasma = format: in vitro ADME
# aldehyde oxidase (AO) = experiment: Metabolism in hepatic S9 fractions; format: in vitro ADME; details: rat, cynomolgus monkey and human hepatic S9 fractions
# [2] = Cynomolgus monkey oral PK; format: in vivo; details: male, plasma, 5 mg/kg
# TA98 = experiment: Bacterial reverse mutation assay; format: cell-based, Salmonella typhimurium; details: with and without S9 metabolic activation; 0.05 to 5.0 mg/plate
# [3] = Stability in human cryopreserved hepatocytes
# TA100 = experiment: Bacterial reverse mutation assay; format: cell-based, Salmonella typhimurium; details: with and without S9 metabolic activation; 0.05 to 5.0 mg/plate
# TA1537 = experiment: Bacterial reverse mutation assay; format: cell-based, Salmonella typhimurium; details: with and without S9 metabolic activation; 0.05 to 5.0 mg/plate
# WP2 uvrA = experiment: Bacterial reverse mutation assay; format: cell-based, Escherichia coli; details: with and without S9 metabolic activation; 0.05 to 5.0 mg/plate
# TA135 = experiment: Bacterial reverse mutation assay; format: cell-based, Salmonella typhimurium; details: with and without S9 metabolic activation; 0.05 to 5.0 mg/plate
structure (smiles),measurement,setting,value
Cc1csc(NC(=O)c2cc(F)cc(Oc3cncnc3)c2)n1 [compound 9],Clp,[1],43 mL/min/kg
"Cc1cccc(NC(=O)c2cc(Oc3cncnc3)cc(C)n2)n1 [compound 21, 6-Methyl-N-(6-methylpyridin-2-yl)-4-(pyrimidin-5-yloxy)picolinamide]",clearance at 24 h,Rat IV PK,34.2 mL/min/kg
"Cc1cccc(NC(=O)c2cc(Oc3cncc(F)c3)cc(C)n2)n1 [compound 22, 4-((5-Fluoropyridin-3-yl)oxy)-6-methyl-N-(6-methylpyridin-2-yl)picolinamide]",clearance at 24 h,Rat IV PK,32.5 mL/min/kg
"CCc1cccc(NC(=O)c2cc(Oc3cncnc3)cc(C)n2)n1 [compound 23, N-(6-Ethylpyridin-2-yl)-6-methyl-4-(pyrimidin-5-yloxy)picolinamide]",clearance at 24 h,Rat IV PK,43.7 mL/min/kg
"Cc1cc(Oc2cncc(F)c2)cc(C(=O)Nc2cccc(F)n2)n1 [compound 26, N-(6-Fluoropyridin-2-yl)-4-((5-fluoropyridin-3-yl)oxy)-6-methylpicolinamide]",clearance at 24 h,Rat IV PK,96 mL/min/kg
same,stability in rat plasma,Stability in rat plasma,instability
"Cc1cc(Oc2cncnc2)cc(C(=O)Nc2ccc(F)cn2)n1 [compound 27, N-(5-Fluoropyridin-2-yl)-6-methyl-4-(pyrimidin-5-yloxy)picolinamide]",contribution of AO to metabolism,aldehyde oxidase (AO),AO contributed significantly to the metabolism
same,Tmax,[2],3 h
same,bacterial reverse mutation assay TA98,TA98,negative
same,half-life at 5 µM,"[3]; both, cryopreserved hepatocytes (pooled, 19 donors)",> 5 h
same,predicted hepatic clearance (CLHEP),[3]; predicted from hepatocytes,3.59 mL/min/kg
same,clearance at 24 h,Rat IV PK,19.3 mL/min/kg
same,bacterial reverse mutation assay TA100,TA100,negative
same,bacterial reverse mutation assay TA1537,TA1537,negative
same,bacterial reverse mutation assay WP2 uvrA,WP2 uvrA,negative
same,bacterial reverse mutation assay TA135,TA135,negative
"Cc1cc(Oc2cncc(F)c2)cc(C(=O)Nc2ccc(F)cn2)n1 [compound 28, N-(5-Fluoropyridin-2-yl)-4-((5-fluoropyridin-3-yl)oxy)-6-methylpicolinamide]",Tmax,[2],2 h
same,clearance at 24 h,Rat IV PK,9.2 mL/min/kg
"Cc1cc(Oc2cnc(C)nc2)cc(C(=O)Nc2ccc(F)cn2)n1 [compound 33, N-(5-Fluoropyridin-2-yl)-6-methyl-4-((2-methylpyrimidin-5-yl)oxy)picolinamide]",clearance at 24 h,Rat IV PK,6.2 mL/min/kg

# Source: publication PMC5484149 (Journal of Medicinal Chemistry, 2017)
